Data set [1] relates to Strongylidase. In words: Trial 2: modified critical test, efficacy against Strongylidase in horses. It is filed as in vivo. The note with it: Trial 2, horses. The protocol:
(§1) The method of evaluating the activity of the formulation was a modified critical test (Lyons et al., 1986) which involved killing the horses 24 hours after treatment.
(§2) Efficacy is the number of worms count dead and removed versus the number of worms count alive and not removed (scolex attached for Anaplocephala perfoliata).
(§3) A trial involving Ivermectin drench (1 ml per 10 kg of body weight equivalent to 0.2 mg of Ivermectin per kg B.W.), praziquantel drench (0.5 to 2 mg of praziquantel per kg of body weight), and formulations in accordance with Examples 6, 7 and 8.
(§4) Seven groups of 6 horses per group were involved in the study. Area of origin of the horses was well known for having internal parasitism problem and specifically tapeworms (Anoplocephala perfoliata) infestation.

In data set [2] the test system is Gasterophilus spp. Briefly: Trial 2: modified critical test, efficacy against Gasterophilus spp. in horses. It is filed as in vivo. The note with it: Trial 2, horses. The protocol: as §1, §2, §3, §4
Data set [3] has as its system Parascaris equorum. In words: Trial 2: modified critical test, efficacy against Parascaris equorum in horses. It is filed as in vivo. The note with it: Trial 2, horses. The protocol: as §1, §2, §3, §4
In data set [4] the test system is Anoplocephala perfoliata. In words: Trial 2: modified critical test, efficacy against Anoplocephala perfoliata in horses. The class given is in vivo. The note with it: Trial 2, horses. The protocol: as §1, §2, §3, §4
Data set [5] relates to Strongylidase. Briefly: Trial 1: modified critical test, efficacy against Strongylidase in horses. It is filed as in vivo. The note with it: Trial 1, horses. The protocol:
as §1, §2
(§5) A trial involving abamectin paste (1 ml per 20 kg of body weight equivalent to 0.2 mg of Abamectin per kg B.W.), praziquantel paste (0.1 to 5 mg of Praziquantel per kg of body weight), and formulations in accordance with examples 1,2,3,4 and 5.
(§6) Eleven groups of ten horses per group were involved in the study. Area of origin of the horses was well known for having internal parasitism problem and specifically tapeworms (Anoplocephala perfoliata) infestation.

In data set [6] the test system is Gasterophilus spp. In words: Trial 1: modified critical test, efficacy against Gasterophilus spp. in horses. The class given is in vivo. The note with it: Trial 1, horses. The protocol:
as §1, §2, §5, §6

Data set [7] relates to Parascaris equorum. In words: Trial 1: modified critical test, efficacy against Parascaris equorum in horses. The note with it: Trial 1, horses. The class given is in vivo. The protocol:
as §1, §2, §5, §6

The subject of data set [8] is Anoplocephala perfoliata. In words: Trial 1: modified critical test, efficacy against Anoplocephala perfoliata in horses. The class given is in vivo. The note with it: Trial 1, horses. The protocol:
as §1, §2, §5, §6

A short description of data set [9]: Biodisponibility of praziquantel in horses. The class given is in vivo. Conditions: paste formula.
For data set [10] the following is noted: cited from earlier work.

Regarding `CC[C@H](C)[C@H]1O[C@]2(CC[C@@H]1C)C[C@@H]1C[C@@H](C/C=C(\C)[C@@H](O[C@H]3C[C@H](OC)[C@@H](O[C@H]4C[C@H](OC)[C@@H](O)[C@H](C)O4)[C@H](C)O3)[C@@H](C)/C=C/C=C3\CO[C@@H]4[C@H](O)C(C)=C[C@@H](C(=O)O1)[C@]34O)O2` [Ivermectin], the “% Efficacy Strongylidase” value in the data set with Strongylidase [1] (ivermectin 0.2 mg/kg) came to 100%. Besides, the “% Efficacy Gasterophilus spp.” value in the data set on Gasterophilus spp. [2] (ivermectin 0.2 mg/kg) amounted to 100%. Moreover, the “% Efficacy Parascaris equorum” value in the data set on Parascaris equorum [3] (ivermectin 0.2 mg/kg) is listed as 100%. Moreover, in the data set on Anoplocephala perfoliata [4] (ivermectin 0.2 mg/kg), the “% Efficacy Anoplocephala perfoliata” value is 0%.
Take `O=C(C1CCCCC1)N1CC(=O)N2CCc3ccccc3C2C1` (stereo not drawn) [Praziquantel, 2(cyclohexylcarbonyl)-1,2,3,6,7,11b-hexahydro-4H-pyrazino[2,1-a]isoquinolin-4-one]: the “% Efficacy Strongylidase” value with Strongylidase [5] (praziquantel 0.1 mg/kg), with Strongylidase [5] (praziquantel 0.5 mg/kg), in the data set on Strongylidase [5] (praziquantel 1 mg/kg), in the data set on Strongylidase [5] (praziquantel 2 mg/kg), with Strongylidase [5] (praziquantel 5 mg/kg) and in the data set on Strongylidase [1] (praziquantel 0.5 mg/kg) was 0% each time. The “% Efficacy Strongylidase” value in the data set on Strongylidase [1] (praziquantel 1 mg/kg) and in the data set on Strongylidase [1] (praziquantel 2 mg/kg) was 0% each time. Also, the “% Efficacy Gasterophilus spp.” value in the data set with Gasterophilus spp. [6] (praziquantel 0.1 mg/kg), in the data set with Gasterophilus spp. [6] (praziquantel 0.5 mg/kg), with Gasterophilus spp. [6] (praziquantel 1 mg/kg), in the data set with Gasterophilus spp. [6] (praziquantel 2 mg/kg), with Gasterophilus spp. [6] (praziquantel 5 mg/kg) and in the data set on Gasterophilus spp. [2] (praziquantel 0.5 mg/kg) was 0% throughout. The “% Efficacy Gasterophilus spp.” value with Gasterophilus spp. [2] (praziquantel 1 mg/kg) and with Gasterophilus spp. [2] (praziquantel 2 mg/kg) was 0% each time. For the same molecule, the “% Efficacy Parascaris equorum” value with Parascaris equorum [7] (praziquantel 0.1 mg/kg), with Parascaris equorum [7] (praziquantel 0.5 mg/kg), in the data set on Parascaris equorum [7] (praziquantel 1 mg/kg), in the data set with Parascaris equorum [7] (praziquantel 2 mg/kg), in the data set with Parascaris equorum [7] (praziquantel 5 mg/kg) and in the data set with Parascaris equorum [3] (praziquantel 0.5 mg/kg) was 0% in each case. Further, the “% Efficacy Parascaris equorum” value in the data set on Parascaris equorum [3] (praziquantel 1 mg/kg) and with Parascaris equorum [3] (praziquantel 2 mg/kg) was 0% throughout. Also, the “% Efficacy Anoplocephala perfoliata” value was determined as 0% in the data set with Anoplocephala perfoliata [8] (praziquantel 0.1 mg/kg); 27% in the data set with Anoplocephala perfoliata [8] (praziquantel 0.5 mg/kg); 51% in the data set with Anoplocephala perfoliata [8] (praziquantel 1 mg/kg); 71% in the data set with Anoplocephala perfoliata [8] (praziquantel 2 mg/kg); 33% in the data set with Anoplocephala perfoliata [8] (praziquantel 5 mg/kg); 21% in the data set on Anoplocephala perfoliata [4] (praziquantel 0.5 mg/kg). Moreover, the results for the “% Efficacy Anoplocephala perfoliata” value in the data set with Anoplocephala perfoliata [4] (praziquantel 1 mg/kg) and with Anoplocephala perfoliata [4] (praziquantel 2 mg/kg) were 43% and 59%, respectively. Besides, the biodisponibility of praziquantel result in [9] was “better biodisponibility”. For the same molecule, the solubility in water result in [10] was “relatively insoluble”.
As to Abamectin, the “% Efficacy Strongylidase” value with Strongylidase [5] (abamectin 0.2 mg/kg) is reported as 100%. Moreover, the “% Efficacy Gasterophilus spp.” value in the data set on Gasterophilus spp. [6] (abamectin 0.2 mg/kg) is 100%. For the same molecule, in the data set on Parascaris equorum [7] (abamectin 0.2 mg/kg), the “% Efficacy Parascaris equorum” value was found to be 100%. Also, the “% Efficacy Anoplocephala perfoliata” value in the data set on Anoplocephala perfoliata [8] (abamectin 0.2 mg/kg) turned out to be 0%.

The record behind these values is patent US5824653A, “Anthelmintic compositions for equidae” (priority 1994, dated 1998).
